Common to all, as to type: cell-based
One assay addresses T1, human TAAR1 receptors (Homo sapiens, UniProt Q96RJ0).
T1 construct: host or cells: CHO-K1
T1 sequence (Q96RJ0 1-339): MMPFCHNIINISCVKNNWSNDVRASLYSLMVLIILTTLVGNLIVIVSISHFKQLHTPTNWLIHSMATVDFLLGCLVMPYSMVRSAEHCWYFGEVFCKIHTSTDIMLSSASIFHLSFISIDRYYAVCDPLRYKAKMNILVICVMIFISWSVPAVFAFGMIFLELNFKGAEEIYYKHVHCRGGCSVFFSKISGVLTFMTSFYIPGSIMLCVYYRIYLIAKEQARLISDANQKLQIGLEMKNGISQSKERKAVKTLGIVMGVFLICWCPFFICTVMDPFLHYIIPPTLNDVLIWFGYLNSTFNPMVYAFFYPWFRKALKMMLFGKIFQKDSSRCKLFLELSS
The experiment in a line: TAAR1 Agonism Assay: cAMP HTRF assay for Gs coupled receptor TAAR1 (Euroscreen FAST-0987C). To be noted: CHO-K1 cells expressing human TAAR1, cAMP HTRF. The gist of the method: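 cAMP accumulation detected by HTRF fluorescence ratio, reagents added in lysis buffer and incubated 1 h at about room temperature. Beforehand, cells (about 3,000 per well) sat with test compound at ten concentrations from 0.3 to 10,000 nM in duplicate for roughly 30 min at about room temperature; tyramine dose-response run alongside.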
On the technique in general: TR-FRET usually uses a lanthanide donor and a delayed reading to cut background.

For the next assay, the target named is T2, human 5-HT2A receptor (Homo sapiens, UniProt P28223).
T2 construct: host or cells: CHO-K1
T2 sequence (P28223 whole entry): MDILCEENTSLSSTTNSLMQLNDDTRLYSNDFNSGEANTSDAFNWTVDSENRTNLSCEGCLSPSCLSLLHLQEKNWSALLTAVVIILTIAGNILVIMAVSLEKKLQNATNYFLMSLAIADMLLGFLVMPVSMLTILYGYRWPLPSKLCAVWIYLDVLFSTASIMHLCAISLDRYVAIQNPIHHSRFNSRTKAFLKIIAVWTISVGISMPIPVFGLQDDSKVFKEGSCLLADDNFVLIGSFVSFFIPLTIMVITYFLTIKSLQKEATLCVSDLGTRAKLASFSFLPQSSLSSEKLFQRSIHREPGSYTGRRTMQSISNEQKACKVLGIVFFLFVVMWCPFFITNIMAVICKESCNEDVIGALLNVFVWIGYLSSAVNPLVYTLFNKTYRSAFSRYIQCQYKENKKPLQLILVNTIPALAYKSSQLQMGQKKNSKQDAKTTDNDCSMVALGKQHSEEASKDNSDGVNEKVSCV
The experiment in a line: 5HT2A Antagonism Assay (Euroscreen FAST-05051), IP-One HTRF. In a few lines: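 CHO-K1 cells expressing receptor, 20,000/well, co-incubated with test compound and reference agonist at its EC80 for 60 min at 37 °C. IP1 accumulation read by HTRF after ~1 h detection at room temperature. Compounds tested in duplicate at 0.3–10,000 nM.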

In the next assay the target is T3, human 5-HT7 receptor (Homo sapiens, UniProt P34969).
T3 construct: host or cells: CHO-K1
T3 sequence (P34969 whole entry): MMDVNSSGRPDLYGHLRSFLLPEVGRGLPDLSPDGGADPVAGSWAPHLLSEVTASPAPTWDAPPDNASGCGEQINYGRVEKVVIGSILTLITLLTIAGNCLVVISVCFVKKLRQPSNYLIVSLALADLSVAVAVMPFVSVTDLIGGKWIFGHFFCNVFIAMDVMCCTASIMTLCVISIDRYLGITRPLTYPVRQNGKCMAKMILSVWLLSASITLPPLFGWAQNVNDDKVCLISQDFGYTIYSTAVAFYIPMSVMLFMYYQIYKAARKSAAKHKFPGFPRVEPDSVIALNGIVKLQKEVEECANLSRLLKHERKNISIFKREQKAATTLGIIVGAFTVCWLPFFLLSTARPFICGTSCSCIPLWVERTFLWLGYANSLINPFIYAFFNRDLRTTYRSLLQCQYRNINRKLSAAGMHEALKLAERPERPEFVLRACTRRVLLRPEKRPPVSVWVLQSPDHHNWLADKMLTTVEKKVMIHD
The experiment in a line: 5HT7 Antagonism Assay (Euroscreen FAST-0499C), cAMP HTRF. The following applies: CHO-K1 cells expressing human 5-HT7, reference agonist at EC80, cAMP HTRF. In a few lines: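 CHO-K1 cells expressing human 5-HT7, 3000 per well in Krebs-Ringer HEPES with 1 mM IBMX, were exposed for 30 minutes at room temperature to compound plus reference agonist at its EC80. cAMP was read by HTRF after 1 hour; compounds were tested in duplicate from 0.3 to 10,000 nM.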

[1] abbreviates: 5-HT2A (IC50), CHO-K1 cells expressing human 5-HT2A, reference agonist at EC80, IP-One.
Where [2] appears, read: CHO-K1 cells expressing human 5-HT2A, reference agonist at EC80, IP-One, read-out: 5-HT2A (IC50).
The mark [3] stands for this setting: read-out: 5-HT2A (IC50), CHO-K1 cells expressing human 5-HT2A, reference agonist at EC80, IP-One.

Among the data in patent publication US20240245658A1, “TAAR1 AND SEROTONIN MODULATORS, AND PHARMACEUTICAL COMPOSITIONS, AND METHODS OF USE THEREOF” (Sunovion Pharmaceuticals Inc., priority 2021, published 2024) are EC50 and IC50 values, retold here.

Read-outs that look alike come from different tables or passages of the source. Some results are limits rather than exact numbers.

By EC50 is commonly meant the concentration that produces a half-maximal response. A higher EC50 goes with a less potent agent. The term IC50 denotes the concentration at which inhibition is half-maximal.

On human TAAR1 receptors, `NCC1Cc2ccccc2Oc2cccc(F)c21` (single isomer, unassigned) [Compound 104, (R*)-(9-fluoro-10,11-dihydrodibenzo[b,f]oxepin-10-yl)methanamine] registered an EC50 of under 1 µM. Moreover, the IC50 at human 5-HT2A receptor (setting [1]) is 1 to 10 µM; at human 5-HT7 receptor, at least 10 µM.
As for `CNCC1Oc2ccccc2Oc2ncccc21` (single isomer, unassigned) [Compound 45, (R*)-1-(5H-benzo[2,3][1,4]dioxepino[5,6-b]pyridin-5-yl)-N-methylmethanamine], the half-maximal effective concentration (EC50) at human TAAR1 receptors is over 10 µM. Moreover, the IC50 on human 5-HT2A receptor (setting [2]) is 1 to 10 µM; on human 5-HT7 receptor, at least 10 µM.
The compound `NCC1Cc2ccccc2Oc2c(F)cccc21` (single isomer, unassigned) [Compound 101, (S*)-(6-fluoro-10,11-dihydrodibenzo[b,f]oxepin-10-yl)methanamine] yielded an EC50 at human TAAR1 receptors of under 1 µM. Moreover, the IC50 at human 5-HT2A receptor (setting [1]) was over 10 µM; at human 5-HT7 receptor, at least 10 µM.
`NCC1Cc2ncc(Cl)cc2Oc2ccccc21` (single isomer, unassigned) [Compound 180, (S*)-(3-chloro-10,11-dihydrobenzo[6,7]oxepino[3,2-b]pyridin-10-yl)methanamine] showed an EC50 on human TAAR1 receptors of under 1 µM. The figures for the IC50 at human 5-HT2A receptor (setting [3]) and at human 5-HT7 receptor were 1 to 10 µM and at least 10 µM, respectively.
Take `NCC1Cc2ncccc2Oc2cc(F)ccc21` (single isomer, unassigned) [Compound 36, (S*)-(7-fluoro-10,11-dihydrobenzo[6,7]oxepino[3,2-b]pyridin-10-yl)methanamine]: on human TAAR1 receptors, the EC50 was under 1 µM. Moreover, the IC50 at human 5-HT2A receptor (setting [1]) was under 1 µM; on human 5-HT7 receptor, at least 10 µM.
Compound `NCC1Cc2ncc(F)cc2Oc2ccccc21` (single isomer, unassigned) [Compound 40, (S*)-(3-fluoro-10,11-dihydrobenzo[6,7]oxepino[3,2-b]pyridin-10-yl)methanamine] registered an EC50 on human TAAR1 receptors of under 1 µM. Further, the results for the half-inhibitory concentration (IC50) on human 5-HT2A receptor (setting [3]) and on human 5-HT7 receptor were under 1 µM and at least 10 µM, respectively.
`CNCC1Cc2ccccc2Oc2ccc(F)cc21` (single isomer, unassigned) [Compound 94, (R*)-(8-fluoro-10,11-dihydrodibenzo[b,f]oxepin-10-yl)-N-methylmethanamine] displayed an EC50 at human TAAR1 receptors of under 1 µM. The 50% inhibitory concentration (IC50) on human 5-HT2A receptor (setting [1]) was under 1 µM; at human 5-HT7 receptor, 1 to 10 µM.
Regarding `CNCC1Cc2cccnc2Oc2ccccc21` (single isomer, unassigned) [Compound 19, (R*)-1-(5,6-dihydrobenzo[6,7]oxepino[2,3-b]pyridin-6-yl)-N-methylmethanamine], the concentration giving a half-maximal response (EC50) at human TAAR1 receptors was in the range of 1 to 10 µM. Further, the IC50 was 1 to 10 µM on human 5-HT2A receptor (setting [2]) and at least 10 µM on human 5-HT7 receptor.
On human TAAR1 receptors, `NCC1Cc2ncccc2Oc2ccccc21` (single isomer, unassigned) [Compound 29, (R*)-(10,11-dihydrobenzo[6,7]oxepino[3,2-b]pyridin-10-yl)methanamine] displayed an EC50 of 1 to 10 µM. In addition, the IC50 is 1 to 10 µM at human 5-HT2A receptor (setting [1]) and at least 10 µM at human 5-HT7 receptor.
With `CNCC1Cc2cc(Cl)ccc2Oc2cccnc21` (single isomer, unassigned) [Compound 122, (S*)-(8-chloro-10,11-dihydrobenzo[6,7]oxepino[3,2-b]pyridin-11-yl)-N-methylmethanamine], on human TAAR1 receptors, the concentration for a half-maximal effect (EC50) was under 1 µM. Besides, the figures for the IC50 on human 5-HT2A receptor (setting [1]) and at human 5-HT7 receptor were under 1 µM and 1 to 10 µM, respectively.
In turn, `NCC1Cc2ncccc2Oc2c(F)cccc21` (single isomer, unassigned) [Compound 176, (S*)-(6-fluoro-10,11-dihydrobenzo[6,7]oxepino[3,2-b]pyridin-10-yl)methanamine] registered an EC50 at human TAAR1 receptors of under 1 µM. Moreover, the IC50 at human 5-HT2A receptor (setting [1]) was over 10 µM; at human 5-HT7 receptor, at least 10 µM.
The corresponding values for `CCNCC1Cc2ccccc2Oc2cccnc21` (single isomer, unassigned) [Compound 109, (R*)-1-(10,11-dihydrobenzo-[6,7]oxepino[3,2-b]pyridin-11-yl)-N-ethylmethanamine] are under 1 µM, 1 to 10 µM and at least 10 µM.
